Test results reported in patent publication US20110166112A1, “METHOD FOR STIMULATING PLATELET PRODUCTION” (Eisai, Inc., priority 2009, published 2011).
Where “and” joins values, the source holds several entries; their conditions need not be identical. Equal entries are not always repeated.

Test system: subjects with chronic idiopathic thrombocytopenic purpura (ITP)
Test: Phase 2 double-blind placebo-controlled dose-ranging 28-day study of E5501 tablets: platelet count response (responder rate)
Assay type: in vivo, human
Conditions: for subjects with sustained platelet increases that met the criteria for positive response: 28 days
Procedure: This was a phase 2, multi-center, double-blind, randomized, placebo-controlled, dose-ranging, parallel group study of E5501 tablets, used in the treatment of subjects with chronic idiopathic thrombocytopenic purpura (ITP) refractory to or relapsed after at least one prior ITP therapy. Subjects who met all entry criteria were randomly assigned in a 3:3:3:3:1 ratio to one of the following five treatment groups dosed daily for 28 days: 1) E5501 2.5 mg; 2) E5501 5 mg; 3) E5501 10 mg; 4) E5501 20 mg; or 5) placebo (PBO). Each E5501 dosing group consisted of 15 subjects while the PBO group consisted of 5 subjects. All study subjects were evaluated weekly (days 7, 14, 21 and 28) for safety and efficacy while receiving study treatment, with a final assessment for safety and effectiveness performed 4 weeks after the last study dose (day 56) unless the subject entered the follow-on study. Platelet counts were also measured on day 3 and day 5.
The primary objective of this study was to assess platelet count response to E5501 on day 28. The response rate was defined as the proportion of subjects who were not on steroids with a screening visit B platelet count <30,000/mm^3 and who achieved a platelet count ≧50,000/mm^3, together with the proportion of subjects receiving steroids with a screening visit B platelet count ≧30,000/mm^3 but <50,000/mm^3 who achieved a platelet count ≧20,000/mm^3 above their screening visit B platelet count. Secondary objectives of the study included the evaluation of other markers of effectiveness, including changes in peripheral blood platelet count, the proportion of subjects who achieved a platelet count ≧50,000/mm^3 and ≧100,000/mm^3, and the proportion of subjects who achieved a doubling of their platelet count at screening visit B and the assessment of the safety and tolerability of E5501.
Primary efficacy endpoint. The primary endpoint in this study was E5501 responder rate on day 28. A responder is defined as a subject with screening visit B platelet count <30,000/mm^3 who achieves a platelet count ≧50,000/mm^3 or a subject receiving steroids with a screening visit B platelet count ≧30,000/mm^3 but <50,000/mm^3 who achieves a platelet count ≧20,000/mm^3 above their screening visit B platelet count.
The secondary endpoints included changes from screening visit B in peripheral blood platelet counts over time; the proportion of subjects who achieved a platelet count of ≧50,000/mm^3 or ≧100,000/mm^3 on day 28 and the proportion of subjects whose platelet count doubled compared to their platelet count at Screening Visit B.
The populations of interest were defined as follows: • The randomized population included all subjects who were randomized into the study. • The safety population included all randomized subjects who receive at least one dose of study drug and have at least one safety assessment. • The pharmacokinetic (PK) population included all subjects who provided blood sample for analysis of E5501. A subject was included in this population if the subject had at least one blood draw for PK assessment. • The full analysis set (FAS) included all subjects who provided adequate data to derive at least one efficacy assessment. […] The day 28 visit window was defined to be from day 25, to last dose day+1, inclusively; • Other major protocol violations that impacted the platelet endpoint evaluation. Results from Planned Analyses
Primary Efficacy Endpoint. The analysis of efficacy was performed both on the FAS population and the PP population at day 28 visit with LOCF and observed case (OC) approaches. The primary analysis population was the FAS. Fisher's exact test was used to examine the difference of response rates among each treatment pair. All p-values are nominal without adjustment for multiplicity.
Secondary Efficacy Endpoint. Analyses for secondary efficacy endpoints were performed by treatment group and by analysis visit using both LOCF and OC methods. […]

[1] = Day 3, FAS, Observed Case, 2.5 mg
[2] = Day 3, FAS, Observed Case, 5 mg
[3] = Day 3, FAS, Observed Case, 10 mg
[4] = Day 3, FAS, Observed Case, 20 mg
[5] = Day 3, FAS, Observed Case, Total E5501
[6] = Day 5, FAS, Observed Case, 2.5 mg
[7] = Day 5, FAS, Observed Case, 5 mg
[8] = Day 5, FAS, Observed Case, 10 mg
[9] = Day 5, FAS, Observed Case, 20 mg
[10] = Day 5, FAS, Observed Case, Total E5501
[11] = Day 28, Baseline Platelet Cnt. >15K/mm^3, 2.5 mg
[12] = Day 28, Baseline Platelet Cnt. >15K/mm^3, 5 mg
[13] = Day 28, Baseline Platelet Cnt. >15K/mm^3, 10 mg
[14] = Day 28, Baseline Platelet Cnt. >15K/mm^3, 20 mg
[15] = Day 28, Baseline Platelet Cnt. >15K/mm^3, Total E5501
[16] = Day 28, Baseline Platelet Cnt. ≦15K/mm^3, 2.5 mg
[17] = Day 28, Baseline Platelet Cnt. ≦15K/mm^3, 5 mg
[18] = Day 28, Baseline Platelet Cnt. ≦15K/mm^3, 10 mg
[19] = Day 28, Baseline Platelet Cnt. ≦15K/mm^3, 20 mg
[20] = Day 28, Baseline Platelet Cnt. ≦15K/mm^3, Total E5501
[21] = Day 28, Full Analysis Population, LOCF, 2.5 mg
[22] = Day 28, Full Analysis Population, LOCF, 5 mg
[23] = Day 28, Full Analysis Population, LOCF, 10 mg
[24] = Day 28, Full Analysis Population, LOCF, 20 mg
[25] = Day 28, Full Analysis Population, LOCF, Total E5501
[26] = Day 28, No Previous History of Splenectomy, 2.5 mg
[27] = Day 28, No Previous History of Splenectomy, 5 mg

O=C(Nc1nc(-c2cc(Cl)cs2)c(N2CCN(C3CCCCC3)CC2)s1)c1cnc(N2CCC(C(=O)O)CC2)c(Cl)c1 [E5501, 1-(3-chloro-5-{[4-(4-chlorothiophen-2-yl)-5-(4-cyclohexylpiperazin-1-yl)thiazol-2-yl]carbamoyl}pyridine-2-yl)piperidine-4-carboxylic acid]
subjects refractory to splenectomy who responded (20 mg): 66.7%
reduction in the response rate from day 7 to 28 days (20 mg dose group): about 15%
platelet counts from baseline (FIG. 1) (28 day study period, 2.5-20 mg): markedly increased platelet counts from baseline
subjects with sustained platelet increases that met the criteria for positive response (5 mg): 28.6%
subjects with sustained platelet increases that met the criteria for positive response (10 mg): 41.7%
subjects with sustained platelet increases that met the criteria for positive response (20 mg): 76.9% and ~80%
Responder, No [1]: 4 (100.0) n (%)
Responder, Yes [1]: 0 n (%)
Responder, No [2]: 3 (100.0) n (%)
Responder, Yes [2]: 0 n (%)
Responder, No [3]: 2 (100.0) n (%)
Responder, Yes [3]: 0 n (%)
Responder, No [4]: 3 (75.0) n (%)
Responder, Yes [4]: 1 (25.0) n (%)
Responder, No [5]: 12 (92.3) n (%)
Responder, Yes [5]: 1 (7.7) n (%)
Responder, No [6]: 4 (100.0) n (%)
Responder, Yes [6]: 0 n (%)
Responder, No [7]: 2 (33.3) n (%)
Responder, Yes [7]: 4 (66.7) n (%)
Responder, No [8]: 3 (75.0) n (%)
Responder, Yes [8]: 1 (25.0) n (%)
Responder, No [9]: 4 (80.0) n (%)
Responder, Yes [9]: 1 (20.0) n (%)
Responder, No [10]: 13 (68.4) n (%)
Responder, Yes [10]: 6 (31.6) n (%)
Nonresponder (Day 7, FAS, LOCF, 2.5 mg): 14 (93.3) n (%)
Responder (Day 7, FAS, LOCF, 2.5 mg): 1 (6.7) n (%)
Nonresponder (Day 7, FAS, LOCF, 5 mg): 5 (33.3) n (%)
Responder (Day 7, FAS, LOCF, 5 mg): 10 (66.7) n (%)
Nonresponder (Day 7, FAS, LOCF, 10 mg): 5 (35.7) n (%)
Responder (Day 7, FAS, LOCF, 10 mg): 9 (64.3) n (%)
Nonresponder (Day 7, FAS, LOCF, 20 mg): 1 (6.7) n (%)
Responder (Day 7, FAS, LOCF, 20 mg): 14 (93.3) n (%)
Nonresponder (Day 7, FAS, LOCF, Total E5501): 25 (42.4) n (%)
Responder (Day 7, FAS, LOCF, Total E5501): 34 (57.6) n (%)
Nonresponder (Day 14, FAS, LOCF, 2.5 mg): 12 (80.0) n (%)
Responder (Day 14, FAS, LOCF, 2.5 mg): 3 (20.0) n (%)
Nonresponder (Day 14, FAS, LOCF, 5 mg): 6 (40.0) n (%)
Responder (Day 14, FAS, LOCF, 5 mg): 9 (60.0) n (%)
Nonresponder (Day 14, FAS, LOCF, 10 mg): 3 (21.4) n (%)
Responder (Day 14, FAS, LOCF, 10 mg): 11 (78.6) n (%)
Nonresponder (Day 14, FAS, LOCF, 20 mg): 1 (6.7) n (%)
Responder (Day 14, FAS, LOCF, 20 mg): 14 (93.3) n (%)
Nonresponder (Day 14, FAS, LOCF, Total E5501): 22 (37.3) n (%)
Responder (Day 14, FAS, LOCF, Total E5501): 37 (62.7) n (%)
Nonresponder (Day 21, FAS, LOCF, 2.5 mg): 13 (86.7) n (%)
Responder (Day 21, FAS, LOCF, 2.5 mg): 2 (13.3) n (%)
Nonresponder (Day 21, FAS, LOCF, 5 mg): 6 (40.0) n (%)
Responder (Day 21, FAS, LOCF, 5 mg): 9 (60.0) n (%)
Nonresponder (Day 21, FAS, LOCF, 10 mg): 7 (50.0) n (%)
Responder (Day 21, FAS, LOCF, 10 mg): 7 (50.0) n (%)
Nonresponder (Day 21, FAS, LOCF, 20 mg): 2 (13.3) n (%)
Responder (Day 21, FAS, LOCF, 20 mg): 13 (86.7) n (%)
Nonresponder (Day 21, FAS, LOCF, Total E5501): 28 (47.5) n (%)
Responder (Day 21, FAS, LOCF, Total E5501): 31 (52.5) n (%)
Responder, No [11]: 8 (80.0) n (%)
Responder, Yes [11]: 2 (20.0) n (%)
Responder, No [12]: 6 (46.2) n (%)
Responder, Yes [12]: 7 (53.8) n (%)
Responder, No [13]: 4 (44.4) n (%)
Responder, Yes [13]: 5 (55.6) n (%)
Responder, No [14]: 2 (18.2) n (%)
Responder, Yes [14]: 9 (81.8) n (%)
Responder, No [15]: 20 (46.5) n (%)
Responder, Yes [15]: 23 (53.5) n (%)
Responder, No [16]: 5 (100.0) n (%)
Responder, Yes [16]: 0 n (%)
Responder, No [17]: 1 (50.0) n (%)
Responder, Yes [17]: 1 (50.0) n (%)
Responder, No [18]: 3 (60.0) n (%)
Responder, Yes [18]: 2 (40.0) n (%)
Responder, No [19]: 1 (25.0) n (%)
Responder, Yes [19]: 3 (75.0) n (%)
Responder, No [20]: 10 (62.5) n (%)
Responder, Yes [20]: 6 (37.5) n (%)
Responder, No [21]: 13 (86.7) n (%)
Responder, Yes [21]: 2 (13.3) n (%)
Responder, No [22]: 7 (46.7) n (%)
Responder, Yes [22]: 8 (53.3) n (%)
Responder, No [23]: 7 (50.0) n (%)
Responder, Yes [23]: 7 (50.0) n (%)
Responder, No [24]: 3 (20.0) n (%)
Responder, Yes [24]: 12 (80.0) n (%)
Responder, No [25]: 30 (50.8) n (%)
Responder, Yes [25]: 29 (49.2) n (%)
Responder, No [26]: 9 (90.0) n (%)
Responder, Yes [26]: 1 (10.0) n (%)
Responder, No [27]: 5 (45.5) n (%)
Responder, Yes [27]: 6 (54.5) n (%)
Responder, No (Day 28, No Previous History of Splenectomy, 10 mg): 5 (45.5) n (%)
